Common to all, as to format: cell-based, mouse
Assay [1] deals with Th17 cells. Briefly: 3H-2-deoxyglucose uptake and ECAR, Th17. The method, then: (§1) Glucose uptake assays were performed as described elsewhere (see, e.g., Macintyre et al., 2014 Cell Metab. 20(1):61-72). Naïve CD4+ T cells were differentiated into Th1 and Th17 cells, in triplicate, in the presence or absence of CB839 over 5 days and spun down after reisolation using CD4 kit as previously described. Cells were washed 2× in PBS, counted, then rested in 1 mL Kreb's Ringers HEPES (KRH) for 10 minutes. Cells were spun and resuspended to 5×10^5 cells/50 uL KRH for glucose uptake assay. Briefly, cells were […]. Cells incubated for 10 minutes at 37° C. Immediately after incubation, reaction was quenched with 200 μM phloretin (Calbiochem, Cat #: 524488). Cells were spun, washed, and then resuspended in scint fluid for counting on Beckman-Coulter scintillation counter. Pathway analysis of altered metabolites was performed using Metaboanalyst 3.0 (metaboanalyst. ca/faces/home.xhtml).
(§2) Experiments were carried out on Agilent Seahorse XF96 bioanalyzer (Agilent). Briefly, wild type CD4+ cells were isolated as previous and activated for 3 days on CD3/CD28 as previously described, or skewed to Th1 and Th17 subsets as described above. T cells were spun onto XF96 Cell-Tak (BD Bioscience, Cat #: 354240) coated plates and rested in Seahorse XF RPMI 1640 media supplemented with glutamine, sodium pyruvate, and glucose. For immediate metabolic response, CB839 and UK5099 were injected separately or in combination, and OCR and ECAR measured.
(§3) Glucose uptake assays were performed as previously described (Macintyre et al.,2014). Naïve CD4+ T cells were differentiated into Th1 and Th17 cells, in triplicate, in the presence or absence of CB839 over five days and spun down after reisolation using CD4 kit as previously described. At day 3 and 5, cells were removed, washed twice in PBS, counted, then rested in 1 mL Kreb's Ringers HEPES (KRH) for at least 10 minutes. Cells were spun and resuspended to 5×10^5 cells/50 μL KRH for glucose uptake assay. Briefly, 3H-2-deoxyglucose was suspended in KRH bubble layered in oil, and cells were added to this bubble. Cells were incubated for 10 minutes at 37° C. Immediately after incubation, reaction was quenched with 200 μM phloretin (Calbiochem, Cat #: 524488). Cells were spun, washed, and then resuspended in scintilation fluid for counting on Beckman-Coulter scintillation counter (3H, 1 min/sample read).
(§4) Experiments were carried out on Agilent Seahorse XF96 bioanalyzer (Agilent). Briefly, wild type CD4+ cells were isolated as previous and activated for 3 days on αCD3/CD28 coated plates as previously described, or skewed to Th1 and Th17 subsets as described above. T cells were isolated and spun onto XF96 Cell-Tak (BD Bioscience, Cat #: 354240) coated plates and rested in Seahorse XF RPMI 1640 media supplemented with glutamine, sodium pyruvate, and glucose. For immediate metabolic response, 1 μM CB839 and 5 μM UK5099 (Cat #: PZ0160-5MG) were injected separately or in combination, and OCR and ECAR measured. For activation response, 1 uM CB839 was injected into IL-7 maintained naïve CD4+ T cells in seahorse medium and allowed to incubate for 20 minutes, followed by soluble αCD3/CD28 injection.

Assay [2] deals with stimulated T cells. Briefly: Oxygen Consumption Rate (Seahorse) of stimulated CD4 T cells. As to conditions: CD4 cells stimulated on CD3/CD28; 1 μM CB839, 5 μM UK5099 injected separately or in combination. The method, then:
as §2, §4

Assay [3] concerns Th1 cells. Briefly: 3H-2-deoxyglucose uptake and ECAR, Th1. The method, then:
as §1, §2, §3, §4

Where [4] appears, read: Th17, day 5, listed as GLS inhibitor.
The mark [5] stands for this setting: Th1, day 5, listed as GLS inhibitor.

Structures are written as SMILES. “Also recorded” adds a separate entry of the source.

Regarding `O=C(Cc1cccc(OC(F)(F)F)c1)Nc1ccc(CCCCc2nnc(NC(=O)Cc3ccccn3)s2)nn1` [CB839], the glucose uptake result was “decreased” in assay [1] (Th17, day 5); “remained impaired” in assay [1] (setting [4]); “reduced” in assay [1] (Th17, day three); “increased” in assay [3] (Th1, day 5); “increased levels of glucose uptake and glycolytic flux” in assay [3] (setting [5]); “reduced” in assay [3] (Th1, day three). Further, the “media acidification (ECAR, glycolytic flux)” value is “decreased” in assay [1] (Th17, day 5); “remained impaired” in assay [1] (setting [4]); “increased” in assay [3] (Th1, day 5); “increased levels of glucose uptake and glycolytic flux” in assay [3] (setting [5]). The “oxygen consumption (T cell respiration)” value in assay [2] is recorded as “neither UK5099 nor CB839 were sufficient on their own to reduce T cell respiration; also recorded: neither UK5099 nor CB839 were sufficient to reduce T cell respiration alone”.

The values above are taken from US20190269705A1, “METHODS AND MATERIALS FOR TREATING GRAFT VERSUS HOST DISEASE” (Regents of the University of Minnesota, priority 2017, published 2019).
